According to the supplement of paper PMC10307832:

Tests used:
Assay in all cases: relative viability (nuclei count vs DMSO), 5 days (fraction); higher = more cells survive
[1] = compound: C1=CC=C(C(=C1)C2=CC=C(C=C2)C3=CSC4=C3C(=C(C(=O)N4)C#N)O)O + CC(C)C[C@H](NC(=O)[C@H](Cc1ccccc1)NC(=O)c1cnccn1)B(O)O [Bortezomib] (partner 0.002 µM)
How it was run: (§1)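 The day after seeding in 1536-well plates, lung cancer cell lines were treated by pin tool with a single drug, or with a fixed anchor-drug dose together with five library-drug doses (not always all listed) in √10 steps. After 5 days, a combined fix-and-stain solution (final 0.05% Triton X-100, 1% formaldehyde, 1 ug/ml Hoechst) was added. Nuclei counted on 4× images gave relative viability as treated counts over vehicle counts, reported as the median of duplicate plates.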

[2] = compound: C1=CC=C(C(=C1)C2=CC=C(C=C2)C3=CSC4=C3C(=C(C(=O)N4)C#N)O)O + CCNC(=O)c1noc(-c2cc(C(C)C)c(O)cc2O)c1-c1ccc(CN2CCOCC2)cc1 [Luminespib] (partner 0.01 µM)
How it was run: as §1

[3] = compound: C1=CC=C(C(=C1)C2=CC=C(C=C2)C3=CSC4=C3C(=C(C(=O)N4)C#N)O)O + CS(=O)(=O)N1CCN(Cc2cc3nc(-c4cccc5[nH]ncc45)nc(N4CCOCC4)c3s2)CC1 [Pictilisib] (partner 1 µM)
How it was run: as §1

[4] = compound: O=C(CCCCCCNC(=O)c1cnc(N(c2ccccc2)c2ccccc2)nc1)NO [Ricolinostat] + CC(=O)Nc1cccc(-n2c(=O)n(C3CC3)c(=O)c3c(Nc4ccc(I)cc4F)n(C)c(=O)c(C)c32)c1 [Trametinib] (partner 0.02 µM)
How it was run: as §1

Cell Line	relative viability ([1]; first compound 0.08 µM)	relative viability ([1]; first compound 0.253 µM)	relative viability ([1]; first compound 0.8 µM)	relative viability ([1]; first compound 2.53 µM)	relative viability ([1]; first compound 8 µM)	relative viability ([2]; first compound 0.08 µM)	relative viability ([2]; first compound 0.253 µM)	relative viability ([2]; first compound 0.8 µM)	relative viability ([2]; first compound 2.53 µM)	relative viability ([2]; first compound 8 µM)	relative viability ([3]; first compound 0.08 µM)	relative viability ([3]; first compound 0.253 µM)	relative viability ([3]; first compound 0.8 µM)	relative viability ([3]; first compound 2.53 µM)	relative viability ([3]; first compound 8 µM)	relative viability ([4]; first compound 0.08 µM)	relative viability ([4]; first compound 0.253 µM)	relative viability ([4]; first compound 0.8 µM)	relative viability ([4]; first compound 2.53 µM)
201T	1.09	1.13	1.14	1.09	1.13	0.873	0.981	1.03	1.09	1.08	0.646	0.697	0.652	0.584	0.846	0.713	0.709	0.689	0.772
NCI-H1651	0.866	0.914	1.01	1.02	0.834	0.77	0.818	0.971	0.974	0.546	0.361	0.61	0.636	0.565	0.568	0.768	0.794	0.83	0.835
LCLC-97TM1	0.344	0.44		0.572	0.343	0.971	1.07	0.78	0.729	0.654	0.168	0.284	0.198	0.2	0.176	0.195	0.182	0.25	0.287
LC-2-ad	1	1.09	1.02	1	1.01	1.08	1.4	1.01	1.23	0.983	0.42	0.537	0.374	0.473	0.355	0.899	0.911	0.907	0.836
NCI-H2347	0.913	1.24	1.23	1.02	0.869	0.354	0.404	0.405	0.37	0.492	0.624	0.609	0.496	0.626	0.454	0.298	0.304	0.276	0.459
NCI-H2009	1.07	1.05	0.827	0.967	0.832	0.962	1.02	1.11	1.03	1.02	0.893	0.829	0.771	0.84	0.787	0.158	0.262	0.294	0.353
NCI-H1650		0.241	0.228	0.207	0.207	0.195	0.197	0.175	0.208	0.2		0.855	0.681	0.53	0.501	0.791	0.583	0.525	0.43
NCI-H650	0.583	0.833	0.772	0.936	0.617	0.778	0.898	0.67	0.902	0.78	0.978	0.975	0.841	0.86	0.91	0.853	0.908	0.909	0.874
NCI-H460		0.828	1.34	1.41	0.624	0.0357	0.0366	0.0362	0.0279	0.036	0.339	0.325	0.367	0.319	0.333	0.114	0.169	0.184	0.0996
HOP-62	0.805	0.632	0.783	0.742	0.505	0.925	0.892	0.876	1.05	0.762	0.774	0.773	0.673	0.837	0.434	0.335	0.391	0.384	0.432
NCI-H1975	0.357	0.348	0.436	0.41	0.343	0.174	0.248	0.161	0.253	0.161	0.272	0.308	0.231	0.271	0.264	0.374	0.368	0.33	0.326
NCI-H838	0.776	0.816	1.03	0.715	0.634	0.276	0.333	0.242	0.197	0.329	0.329	0.49	0.367	0.367	0.403	0.495	0.546	0.548	0.375
NCI-H2085	0.919	1.26	1.01	0.952	0.992	0.403	0.475	0.479	0.499	0.416	0.414	0.517	0.528	0.418	0.399		0.491	0.516	0.513
NCI-H3122	1.02	1.06	1.06	0.993	1.11	0.106	0.0689	0.0946	0.105	0.0854	0.6	0.666	0.676	0.682	0.662	0.221	0.256	0.248	0.313
HCC-15	0.816	1.14	1.02	1.16	1.14	0.277	0.289	0.297	0.38	0.3	0.777	0.767	0.734	0.74	0.777	0.352	0.397	0.379	0.333
